Reference: PubChem BioAssay (NCI)
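Cultured in 96-well plates, cells were exposed to test compound for 48 hours across five concentrations. TGI denotes the concentration required for complete inhibition of growth.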

Legend:
Experiment in all cases: DTP human tumour cell line panel, 48 h
[1] = test system: 786-0 renal
[2] = test system: A549 NSCLC
[3] = test system: EKVX NSCLC
[4] = test system: HCC-2998 colon
[5] = test system: HCT-15 colon
[6] = test system: HOP-62 NSCLC
[7] = test system: HS 578T breast
[8] = test system: HT29 colon
[9] = test system: KM12 colon
[10] = test system: MCF7 breast
[11] = test system: NCI-H23 lung
[12] = test system: NCI-H522 lung
[13] = test system: OVCAR-8 ovarian
[14] = test system: SF-268 CNS
[15] = test system: SK-MEL-5 melanoma
[16] = test system: T-47D breast
[17] = test system: HOP-92 NSCLC
[18] = test system: UO-31 renal
[19] = test system: SR leukemia

| SMILES | TGI [1] | TGI [2] | TGI [3] | TGI [4] | TGI [5] | TGI [6] | TGI [7] | TGI [8] | TGI [9] | TGI [10] | TGI [11] | TGI [12] | TGI [13] | TGI [14] | TGI [15] | TGI [16] | TGI [17] | TGI [18] | TGI [19] |
| --- | --- | --- | --- | --- | --- | --- | --- | --- | --- | --- | --- | --- | --- | --- | --- | --- | --- | --- | --- |
| Cc1cc2c(cc1Cl)SC(NN(C)C)=NS2(=O)=O | > 10 µM | > 10 µM | > 10 µM | > 10 µM | > 10 µM | > 10 µM | > 10 µM | > 10 µM | > 10 µM | > 10 µM | > 10 µM | > 10 µM | > 10 µM | > 10 µM | > 10 µM | > 10 µM | – | – | – |
| Cn1ccnc1SC(F)(F)c1nc2ccccc2o1 | > 100 µM | > 100 µM | – | > 100 µM | > 100 µM | > 100 µM | > 100 µM | > 100 µM | > 100 µM | > 100 µM | > 100 µM | > 100 µM | > 100 µM | > 100 µM | > 100 µM | > 100 µM | > 100 µM | > 100 µM | – |
| COc1cccc(N=N/C(=N/NC(=O)c2cc(Cl)ccc2O)c2ccc(N(CCC#N)CCC#N)cc2C)c1 | > 100 µM | > 100 µM | > 100 µM | 92 µM | > 100 µM | > 100 µM | > 100 µM | > 100 µM | > 100 µM | 79.1 µM | > 100 µM | 31.9 µM | 55.3 µM | > 100 µM | > 100 µM | 58.4 µM | – | > 100 µM | > 100 µM |
| CSc1nc2nc(C)c(C)nc2c(=O)[nH]1 | > 100 µM | > 100 µM | > 100 µM | > 100 µM | > 100 µM | > 100 µM | – | > 100 µM | > 100 µM | – | > 100 µM | > 100 µM | > 100 µM | > 100 µM | > 100 µM | – | > 100 µM | > 100 µM | > 100 µM |
| Cn1c(=O)c2[nH]c(/N=N\n3ccc4ccccc43)nc2n(C)c1=O | > 100 µM | > 100 µM | > 100 µM | > 100 µM | > 100 µM | > 100 µM | > 100 µM | > 100 µM | > 100 µM | – | > 100 µM | > 100 µM | > 100 µM | > 100 µM | > 100 µM | > 100 µM | – | > 100 µM | > 100 µM |
| CN(C)S(=O)(=O)n1ccnc1 | > 100 µM | > 100 µM | > 100 µM | > 100 µM | > 100 µM | > 100 µM | – | – | > 100 µM | > 100 µM | > 100 µM | > 100 µM | – | > 100 µM | > 100 µM | > 100 µM | > 100 µM | > 100 µM | – |
| CCC(C)[C@H]1C(=O)N=C(N)N1C(=O)OCc1ccccc1 (some centres not stated) | > 100 µM | – | > 100 µM | > 100 µM | > 100 µM | > 100 µM | – | > 100 µM | > 100 µM | > 100 µM | > 100 µM | > 100 µM | > 100 µM | > 100 µM | > 100 µM | – | – | > 100 µM | > 100 µM |
| CCOC(=O)c1c(NS(=O)(=O)c2ccc(Br)cc2)sc2c1CCCC2 | 29.4 µM | 26.5 µM | 11 µM | 32.6 µM | 19 µM | 14.1 µM | 35.5 µM | 10.1 µM | 18.2 µM | > 62.9 µM | 18.7 µM | 16.2 µM | 15.3 µM | 10.9 µM | 18.2 µM | 14.5 µM | – | 15.7 µM | 74.7 µM |
| COC(=O)C1=C(O)C(C(=O)OC)[C@]2(O)[C@H](C(=O)OC)[C@H]1C[C@@H](c1ccccc1OC)[C@H]2C(=O)OC (some centres not stated) | 20.4 µM | 21.7 µM | 29.6 µM | 22.2 µM | 13.5 µM | 39.1 µM | 11 µM | 14.6 µM | 21.9 µM | – | 14.8 µM | 5 µM | 11.8 µM | 16.5 µM | 13.2 µM | > 76.1 µM | 15.7 µM | 21.6 µM | 7.04 µM |
| O=C(O)C(F)(OC(F)(F)C(F)(F)C(F)(F)F)C(F)(F)F (configuration not stated) | > 100 µM | > 100 µM | > 100 µM | > 100 µM | > 100 µM | > 100 µM | > 100 µM | > 100 µM | > 100 µM | > 100 µM | > 100 µM | > 100 µM | > 100 µM | > 100 µM | > 100 µM | > 100 µM | > 100 µM | > 100 µM | – |
| Nc1cc(OCc2ccccc2)c(OCc2ccccc2)cc1C=O | 55.4 µM | > 100 µM | > 100 µM | 34.5 µM | > 100 µM | – | > 100 µM | > 100 µM | 92.2 µM | > 100 µM | – | 24.5 µM | > 100 µM | > 100 µM | 93.1 µM | > 100 µM | – | – | > 100 µM |
| CCOC(=O)CC/C(C)=N\n1c(Cc2ccc(Cl)cc2)n[nH]c1=O | > 100 µM | > 100 µM | – | > 100 µM | > 100 µM | > 100 µM | > 100 µM | > 100 µM | > 100 µM | > 100 µM | > 100 µM | > 100 µM | > 100 µM | > 100 µM | > 100 µM | > 100 µM | – | > 100 µM | > 100 µM |
| CSc1nc(C)cc(N(C)c2ccccc2)n1 | > 100 µM | > 100 µM | > 100 µM | > 100 µM | > 100 µM | > 100 µM | 86.6 µM | 49.5 µM | 20 µM | 75.4 µM | 95.3 µM | > 100 µM | 93 µM | > 100 µM | 56.2 µM | – | – | > 100 µM | 60.7 µM |
| CNC(=S)NNC(=O)c1c(C)nc2sccn12 | > 100 µM | > 100 µM | > 100 µM | > 100 µM | > 100 µM | > 100 µM | – | > 100 µM | > 100 µM | – | > 100 µM | > 100 µM | > 100 µM | > 100 µM | > 100 µM | – | > 100 µM | – | > 100 µM |
